For four compounds, inhibition results are on record in paper PMC9037111, “Structure-based design, synthesis, and biological evaluation of novel piperine–resveratrol hybrids as antiproliferative agents targeting SIRT-2” (RSC Advances, 2021).

Like-named read-outs stand apart in the source and are kept apart here.

Holding throughout (test): cells
Holding throughout (parameters): species or system NCI-60 human tumour cell lines; NCI-60 one-dose screen at 10 uM, percent growth inhibition versus untreated control cells

The test system of experiment [1] is HL-60(TB). The conditions noted are these: Homo sapiens, HL-60, growth inhibition, one dose.
The test system of experiment [2] is M14. The conditions noted are these: Homo sapiens, M14, growth inhibition, one dose.
The test system of experiment [3] is OVCAR-5. To be noted: Homo sapiens, OVCAR-5, growth inhibition, one dose.
For experiment [4], the system named is HOP-62. The conditions noted are these: Homo sapiens, HOP-62, growth inhibition, one dose.
Experiment [5] deals with HCT-116. The conditions noted are these: Homo sapiens, HCT-116, growth inhibition, one dose.
Experiment [6] relates to HOP-92. To be noted: Homo sapiens, HOP-92, growth inhibition, one dose.
Experiment [7] has as its system HCC-2998. The conditions noted are these: Homo sapiens, HCC 2998, growth inhibition, one dose.
Experiment [8] deals with CAKI-1. The conditions noted are these: Homo sapiens, CAKI-1, growth inhibition, one dose.
Experiment [9] relates to UACC-62. To be noted: Homo sapiens, UACC-62, growth inhibition, one dose.
Experiment [10] deals with UACC-257. To be noted: Homo sapiens, UACC-257, growth inhibition, one dose.
For experiment [11], the system named is SF-539. To be noted: Homo sapiens, SF-539, growth inhibition, one dose.
Experiment [12] has as its system K-562. The conditions noted are these: Homo sapiens, K562, growth inhibition, one dose.
In experiment [13] the test system is MDA-MB-435. The conditions noted are these: Homo sapiens, MDA-MB-435, growth inhibition, one dose.
The test system of experiment [14] is RPMI-8226. The conditions noted are these: Homo sapiens, RPMI-8226, growth inhibition, one dose.
Experiment [15] relates to MDA-MB-231/ATCC. The conditions noted are these: Homo sapiens, MDA-MB-231, growth inhibition, one dose.
For experiment [16], the system named is KM12. To be noted: Homo sapiens, KM12, growth inhibition, one dose.
In experiment [17] the test system is NCI/ADR-RES. To be noted: Homo sapiens, NCI/ADR-RES, growth inhibition, one dose.
For experiment [18], the system named is T-47D. The conditions noted are these: Homo sapiens, T47D, growth inhibition, one dose.
The mark [19] stands for this setting: read-out: Growth% inhibition / 5h.
Setting [20] is: read-out: Growth% inhibition / 5b.
Setting [21] is: read-out: Growth% inhibition / 5a.
Where [22] appears, read: read-out: Growth% inhibition / 5d.

For the compound `C/C(=N\NC(=O)/C=C/C=C/c1ccc2c(c1)OCO2)c1ccc(Br)cc1` [5h, (2E,4E)-5-(Benzo[d][1,3]dioxol-5-yl)-N′-((E)-1-(4-bromophenyl)ethylidene)penta-2,4-dienehydrazide], the inhibition at 10 µM in experiment [1] (setting [19]) is 15.9%; in experiment [2] (setting [19]), 26.7%; in experiment [3] (setting [19]), 10.7%; in experiment [4] (setting [19]), 33.2%; in [5] (setting [19]), 12.3%; in experiment [6] (setting [19]) it was 11.5%. Further, the inhibition at 10 µM worked out at 10.8% in experiment [7] (setting [19]); 28.1% in experiment [8] (setting [19]); 28.5% in experiment [9] (setting [19]); 12% in [10] (setting [19]); 12.5% in experiment [11] (setting [19]); 40.1% in [12] (setting [19]). Besides, the inhibition at 10 µM in experiment [13] (setting [19]) is 13.6%; in experiment [14] (setting [19]), 19.4%; in experiment [15] (setting [19]), 21%; in [16] (setting [19]), 24.9%; in [17] (setting [19]), 33.9%; in [18] (setting [19]), 65%.
`O=C(/C=C/C=C/c1ccc2c(c1)OCO2)N/N=C/c1ccc(O)cc1O` [5b, (2E,4E)-5-(Benzo[d][1,3]dioxol-5-yl)-N′-((E)-2,4-dihydroxybenzylidene)penta-2,4-dienehydrazide]: the inhibition at 10 µM in experiment [2] (setting [20]) is 69.7%; in experiment [3] (setting [20]), 57.5%; in [4] (setting [20]) it was 72.9%; in [5] (setting [20]), 91.3%; in experiment [6] (setting [20]), 46.6%; in experiment [7] (setting [20]) it was 61.1%. In addition, the inhibition at 10 µM came to 90.3% in experiment [8] (setting [20]); 85.7% in experiment [9] (setting [20]); 71.5% in experiment [10] (setting [20]); 85.7% in experiment [11] (setting [20]); 88.4% in experiment [12] (setting [20]); 67.4% in experiment [13] (setting [20]). Moreover, the inhibition at 10 µM in experiment [14] (setting [20]) turned out to be 52.3%; in experiment [15] (setting [20]), 65.6%; in [16] (setting [20]) it was 76.6%; in [17] (setting [20]) it was 94.8%; in experiment [18] (setting [20]), 76.1%.
As for `O=C(/C=C/C=C/c1ccc2c(c1)OCO2)NN=Cc1ccc(O)cc1` [5a, (2E,4E)-5-(Benzo[d][1,3]dioxol-5-yl)-N′-((E,Z)-4-hydroxybenzylidene)penta-2,4-dienehydrazide], the inhibition at 10 µM in experiment [1] (setting [21]) was 44.1%; in experiment [2] (setting [21]) it was 17.1%; in [8] (setting [21]), 25.1%; in experiment [9] (setting [21]), 28.5%; in experiment [11] (setting [21]) it was 17.6%; in experiment [12] (setting [21]) it was 58.8%. Further, the inhibition at 10 µM in experiment [13] (setting [21]) was determined as 73%; in experiment [14] (setting [21]), 16.9%; in experiment [15] (setting [21]), 17.2%; in [16] (setting [21]), 33.4%; in experiment [18] (setting [21]), 18.6%.
With `CN(C)c1ccc(C=NNC(=O)/C=C/C=C/c2ccc3c(c2)OCO3)cc1` (mixture of isomers) [5d, (2E,4E)-5-(Benzo[d][1,3]dioxol-5-yl)-N′-((E/Z)-4-(dimethylamino)-benzylidene)penta-2,4-dienehydrazide], the inhibition at 10 µM is 22.2% in experiment [2] (setting [22]); 24.6% in experiment [8] (setting [22]); 16.1% in experiment [9] (setting [22]); 56.1% in [12] (setting [22]); 70.1% in experiment [13] (setting [22]); 14.2% in [16] (setting [22]).
